In patent US20230046728A1, “TECHNOLOGIES USEFUL FOR ASSESSING PERMEABILITY” (FOG PHARMACEUTICALS, INC., priority 2019, published 2023):

Tests used:
[1] = test system: Expi293 cells transfected with His-Halotag; assay: Library cell penetration assay, cell crash method (Example 6); assay type: in vitro ADME, human; conditions: for Peptide Signal in Cells (from cells; agents comprising —Cl): MS signal of unconverted —Cl agent from cells; for Peptide Signal in Cells (from cells; agents comprising —Cl) / Mass Shifted Peptide Signal in Cells: library pool or individual peptide; for Mass Shifted Peptide Signal in Cells: MS signal of —OH agent from cells; for Cell Penetration Score: Mass Shifted Peptide Signal in Cells divided by Mass Shifted Peptide Theoretical Max Signal, averaged across replicates
Experimental: Animal cells (e.g., Expi293 cells or human HEK 293 cells) were seeded in tissue culture plates and cultured in Opti-MEM media. The cells were set in PETG flasks at a concentration of 6×10^5 cells/mL and a volume of 30 mL. The cell viability was checked to be above 90-93%. The flasks were placed in a shaking incubator at 300 rpm in 8% CO2.
After 24 hours of incubation, for each flask, one 1.5-mL Lo-bind tube and one 2-mL Lo-Bind tube were prepared. In the 1.5-mL tube, 30 μg of polyhistidine-tagged halotag (His-Halotag) plasmid and Opti-MEM media were added to provide a 1-mL mixture. In the 2-mL Lo-Bind tube, 60 μL of ExpiFectamine and 940 μL of Opti-MEM were added. After 5 minutes, the plasmid/Opti-MEM mixture was added to the ExpiFectamine/Opti-MEM mixture. The combined mixture was placed in an incubator at room temperature for 20 minutes, which was subsequently added to the flask.
After 48 hours of transfection, the transfected cells were checked for viability (90% or higher). The transfected cells were transferred to a protein Lo-Bind Eppendorf 96-well deep well plate (1000 μL), where each well contained 1 million cells in 500 μL of Expi293 media.
Solutions of candidate compounds, either individual peptides or peptides from a peptide library (DPLs), were received at a stock concentration of 10 mM and diluted in DMSO and kept in a “Source Plate”. For DPLs, the peptide concentration in the “Source Plate” was 1 mM, whereas for individual peptides, the concentration was either 100 μM (for a final concentration of 100 nM) or 10 μM (for a final concentration of 10 nM). […] of the DPL or individual peptide solution was added in triplicates to the 96-well plate. The cells were kept in a shaking incubator at 300 rpm and 37 ° C., 8% CO2 overnight for about 18-20 hours.
The following day, one of the following two methods was performed: i) capture beads method or ii) cell crash method.
Cell crash method: the 96-well plate was placed in the centrifuge at 300 g for 5 minutes. 720 μL of the supernatant was removed. The cells were resuspended in residual 200 μL of media. The suspensions were transferred to a 96-well v-bottom plate, which was placed in the centrifuge at 300 g for an additional 5 minutes. All remaining media was removed. The cell pellets were washed with 200 μL of PBS, mixed and placed back in the centrifuge at 300 g and 4 ° C. for an additional 5 minutes. The supernatant was removed and 80 μL of PBS was added.
80 μL of eluted proteins/peptides from the capture beads method or the PBD solution from the cell crash method was transferred into a deepwell low binding plate (500 μL). 80 μL of ammonium hydroxide was added. The plate was kept on a shaker at 37 ° C. for 3 hours. The plate was dried in a speedvac overnight.
The following day, the dried cell pellet was resuspended in 70 μL of 47.5% water with 0.1% FA/47.5% ACN with 0.1% FA/10 μM pepmix (10 mM stock)/5% fresh DMSO. The mixture was let sit in the plate for 1 hour to allow the dissolution of the pellet. If the sample appeared cloudy, more resuspension solution was added (50 μL at a time). 50 μL was transferred directly to the mass spec plate and the plate was sealed with the 384-well plate seal.
(§1) Once all samples were added (including cell free), the plate was placed in an autosampler of a mass spectrometer. For the mass spectrometry analysis, methods from example 1 were employed.
Results from certain assessment were presented blow. Cell crash method was utilized. Mass Shifted Peptide Theoretical Max signal is signal of an agent comprising —OH obtained when using the DhaA to convert input agent comprising —Cl into product agent comprising —OH form without involving cells (multiple agents may be converted simultaneously; in some embodiments, can be performed library by library). In some embodiments, each library pool plus positive and negative references was tested in a single well, which in some cases contain about a million or so cells. […]

DhaA enzyme = DhaA enzyme (Rhodococcus rhodochrous, UniProt P0A3G2); assay: Cell free peptide/DhaA conversion, Mass Shifted Peptide Theoretical Max signal (Example 6); assay type: biochemical; conditions: DhaA converts —Cl input agent into —OH product agent, MS signal
Experimental: For the cell free systems, DPLs were diluted in a 500 μL DPW plate (library dilution plate). Individual peptides were diluted individually in low-bind tubes until making the final working dilution in PBS. At this point, the individual peptides were transferred to the library dilution plate. By having all final dilutions in one plate, a multichannel was used to transfer the diluted peptides to the cell free plates. The same design as “Source Plate” was used for the cell assay. For the peptide only plate, 45 μL of PBS was added to each well and 5 μL of the diluted library/peptide was added in triplicates. For peptide/DhaA plate, 5 μL of 50 μM DhaA enzyme was added, followed by 40 μL of PBS and 5 μL of the diluted library/peptide. Both plates were kept at the bench top thermomixer at 350 rpm and 37 ° C. overnight. The next day, 2 mL of a cell free solution was prepared with 1 mL of DMSO, 20 μL of PepMix and 980 μL of a 1:1 ratio of ACN/0.1% FA and H2O/0.1% FA. 5 μL of the cell free solution was added to a 384 well plate, followed by 45 μL of the cell free sample.
as §1
Results from certain assessment were presented blow. Cell crash method was utilized. Mass Shifted Peptide Theoretical Max signal is signal of an agent comprising —OH obtained when using the DhaA to convert input agent comprising —Cl into product agent comprising —OH form without involving cells (multiple agents may be converted simultaneously; in some embodiments, can be performed library by library). In some embodiments, each library pool plus positive and negative references was tested in a single well, which in some cases contain about a million or so cells. Each library pool is an individually prepared library with no purifications—all members mixed together along with side products, etc. “Cell Penetration Score” is calculated by dividing “Mass Shifted Peptide Signal in Cells” by “Mass Shifted Peptide Theoretical Max Signal” for each pair of replicates, then averaging those values across replicates; additionally or alternatively, COR and/or RPF may also be utilized.

Sequence of DhaA enzyme (P0A3G2 whole entry): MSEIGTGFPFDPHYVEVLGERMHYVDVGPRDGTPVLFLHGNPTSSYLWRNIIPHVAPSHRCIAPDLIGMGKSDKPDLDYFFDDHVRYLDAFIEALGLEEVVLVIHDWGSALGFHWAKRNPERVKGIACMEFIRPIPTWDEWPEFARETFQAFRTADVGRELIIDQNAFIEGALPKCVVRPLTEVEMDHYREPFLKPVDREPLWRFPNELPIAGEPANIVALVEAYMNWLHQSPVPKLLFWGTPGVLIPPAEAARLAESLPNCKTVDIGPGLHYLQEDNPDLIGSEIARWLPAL

| Molecule | Peptide Signal in Cells (from cells; agents comprising —Cl) [1] | Mass Shifted Peptide Signal in Cells [1] | Cell Penetration Score [1] | Mass Shifted Peptide Theoretical Max Signal (DhaA enzyme) |
| --- | --- | --- | --- | --- |
| CNC(=O)[C@H](C)NC(=O)[C@H](C)NC(=O)[C@H](CO)NC(=O)[C@]1(C)CCCC=CCCCCCC[C@@](C)(NC(=O)[C@H](Cc2ccccc2)NC(=O)[C@@H](NC(=O)[C@H](CC(C)C)NC(=O)CCC(=O)NCCOCCOCCCCCCCl)[C@@H](C)O)C(=O)N[C@@H](CCC(=O)O)C(=O)N[C@@H](Cc2ccc(O)cc2)C(=O)N[C@@H](Cc2c[nH]c3ccccc23)C(=O)N[C@@H](C)C(=O)N[C@@H]([C@@H](C)O)C(=O)N[C@@H](CC2CCC2)C(=O)N1 [PEP000126, HaloTagO2-Leu-Thr-Phe-R8-Glu-Tyr-Trp-Ala-Thr-Cba-S5-Ser-Ala-Ala-NHMe] | 4E+06 | 4E+07 | 561 | – |
| HaloTagO2-Leu-Thr-Phe-ReN-Ala-Tyr-Trp-Ala-Gln-Cba-Az-Ser-Ala-Ala-NH2 [PEP000127] | 0E+00 | 1E+06 | 17 | 8E+06 |
| HaloTagO2-Leu-Thr-Phe-ReN-Ala-Tyr-Trp-Ala-Gln-Cba-Az-Ser-Ala-Ala-NHMe [PEP000130] | 5E+03 | 2E+06 | 27 | 7E+06 |
| HaloTagO2-Leu-Thr-Phe-ReN-Glu-Tyr-Trp-Ala-Ala-Cba-Az-Ser-Ala-Ala-NH2 [PEP000133] | 0E+00 | 3E+05 | 5 | 5E+06 |
| HaloTagO2-Leu-Thr-Phe-ReN-Glu-Tyr-Trp-Ala-Ala-Cba-Az-Ser-Ala-Ala-NHMe [PEP000135] | 0E+00 | 3E+05 | 7 | 5E+06 |
| HaloTagO2-Leu-Thr-Phe-ReN-Glu-Tyr-Trp-Ala-Gln-Cba-Az-Ser-Ala-Ala-NH2 [PEP000128] | 0E+00 | 1E+05 | 3 | 4E+06 |
| HaloTagO2-Leu-Thr-Phe-ReN-Glu-Tyr-Trp-Ala-Gln-Cba-Az-Ser-Ala-Ala-NHMe [PEP000131] | 0E+00 | 1E+05 | 3 | 3E+06 |
| HaloTagO2-Leu-Thr-Phe-ReN-Glu-Tyr-Trp-Ala-Gln-Cba-Az-Ser-Ala-Ala-NHMe [PEP000136] | 0E+00 | 1E+04 | 0 | 4E+06 |
| HaloTagO2-Leu-Thr-Phe-ReN-Glu-Tyr-Trp-Ala-Thr-Cba-Az-Ser-Ala-Ala-NH2 [PEP000134] | 3E+03 | 1E+05 | 2 | 6E+06 |
| HaloTagO2-Leu-Thr-Phe-ReN-Glu-Tyr-Trp-Ala-Thr-Cba-Az-Ser-Ala-Ala-NHMe [PEP000137] | 0E+00 | 4E+05 | 6 | 6E+06 |
| HaloTagO2-Leu-Thr-Phe-ReN-Thr-Tyr-Trp-Ala-Gln-Cba-Az-Ser-Ala-Ala-NH2 [PEP000129] | 0E+00 | 1E+06 | 19 | 6E+06 |
| HaloTagO2-Leu-Thr-Phe-ReN-Thr-Tyr-Trp-Ala-Gln-Cba-Az-Ser-Ala-Ala-NHMe [PEP000132] | 0E+00 | 1E+06 | 20 | 6E+06 |
